# Molecular target: Y78F hTTR mutant (Homo sapiens, UniProt P02766, Y98F)
# Experiment: turbidimetric test of amyloidogenesis (fibril formation) inhibiting activity in vitro
# Type: biochemical
# Conditions: for RA (%): % reduction of the rate of aggregation at high inhibitor concentration: RA(%)=(1−A/(A+B))·100, compared with the rate in the absence of inhibitor; for IC50: inhibitor concentration at which the aggregation was half that in the absence of inhibitor, 0 to 40 μM inhibitor, 37° C., acid-induced (dilution buffer pH 4.2); for Ψ: initial slope of curve v0 versus [I]: sensitivity of the aggregation process to the inhibitor, higher = greater inhibiting effect
# Description: The compounds to be tested as inhibitors were dissolved in DMSO at a concentration of 1.5 mM. The working solution was prepared by 1 to 4 dilution of the previous solution in a water/DMSO mixture (2:1). […] The incubation buffer was 10 mM sodium phosphate, 100 mM potassium chloride, 1 mM EDTA, […]. The dilution buffer was 400 mM sodium acetate, 100 mM potassium chloride, 1 mM EDTA, pH 4.2. The test protocol for an inhibitor was as follows: 20 μl of the protein solution was dispensed in 7 wells of a 96-well microplate. Different volumes of the inhibitor working solution were added to each of the wells to obtain end concentrations of 0 to 40 μM. Incubation buffer was then added to each well up to an end volume of 100 μl. The microplate was incubated at 37° C. in the microplate reader provided with thermostatting and stirring. Incubation proceeded for 30 min at 37° C. with stirring for 15 seconds every minute. 100 μl of dilution buffer was then added to every well, and the mixture was incubated at 37° C. with stirring for 15 seconds every minute in the microplate reader and absorbance was monitored at 330 nm for 1 hour 30 minutes at intervals of 1 minute. The data of absorbance versus time for every well were collected and analysed with the Microsoft Excel program. All tests were done in duplicate.
# 1.—Initial fibril formation rate. From the absorbance readings at 330 nm with the incubation time for every well, the initial fibril formation rate was calculated as the slope of the initial linear portion of the curve. Thus, the aggregation rate was obtained at every inhibitor concentration. 2.—Aggregation rate versus inhibitor concentration.
# The adjusted parameters were: A (in units of absorbance per hour), residual aggregation rate at high inhibitor concentration; B (in units of absorbance per hour), amplitude or maximum reduction of the aggregation rate; and C (in μM^−1) the exponential constant. A+B was the aggregation rate in the absence of inhibitor (maximum aggregation rate). From these parameters, other parameters were extracted that characterised every inhibitor with regard to its capacity and effectiveness in inhibiting fibril formation: • IC50: inhibitor concentration (μM) at which the aggregation was half that in the absence of inhibitor; • Ψ: initial slope of curve v0 versus [I], which reflected the sensitivity of the aggregation process to the inhibitor.
compound,measurement,value
"COC(=O)c1cc(-c2ccc(F)cc2F)cc(I)c1O [Iododiflunisalmethyl ester, methyl 5-(2,4-difluorophenyl)-3-iodo-salicylate]",RA (%): % reduction of the rate of aggregation at high inhibitor concentration,98%
same,IC50,16.7 µM
same,Ψ: initial slope of curve v0 versus [I],0.027 UA · hr^−1 · μM^−1
"N-[5-(2,4-difluorophenyl)-3-iodo-salicyloyl]glycine [Iododiflunisalglycine]",RA (%): % reduction of the rate of aggregation at high inhibitor concentration,100%
same,IC50,11.2 µM
same,Ψ: initial slope of curve v0 versus [I],0.040 UA · hr^−1 · μM^−1
"NC(=O)c1cc(-c2ccc(F)cc2F)cc(I)c1O [Iododiflunisalamide, 5-(2,4-difluorophenyl)-3-iodo-salicylamide]",RA (%): % reduction of the rate of aggregation at high inhibitor concentration,84%
same,IC50,11.7 µM
same,Ψ: initial slope of curve v0 versus [I],0.041 UA · hr^−1 · μM^−1
"O=C(O)c1cc(-c2ccc(F)cc2F)ccc1O [Diflunisal, 5-(2,4-difluorophenyl)salicylic acid]",RA (%): % reduction of the rate of aggregation at high inhibitor concentration,84%
same,Ψ: initial slope of curve v0 versus [I],0.036 UA · hr^−1 · μM^−1
COC(=O)c1cc(-c2ccc(F)cc2F)ccc1O [Diflunisal methylester],RA (%): % reduction of the rate of aggregation at high inhibitor concentration,24%
same,IC50,> 100 µM
same,Ψ: initial slope of curve v0 versus [I],0.011 UA · hr^−1 · μM^−1
NC(=O)c1cc(-c2ccc(F)cc2F)ccc1O [Diflunisal amide],RA (%): % reduction of the rate of aggregation at high inhibitor concentration,10%
same,IC50,> 100 µM
same,Ψ: initial slope of curve v0 versus [I],0.009 UA · hr^−1 · μM^−1
O=C(O)CNC(=O)c1cc(-c2ccc(F)cc2F)ccc1O [Diflunisal glycine],RA (%): % reduction of the rate of aggregation at high inhibitor concentration,28%
same,IC50,> 100 µM
same,Ψ: initial slope of curve v0 versus [I],0.011 UA · hr^−1 · μM^−1
